From article PMC2365111, “Cytotoxicity of Poly(Phenolic)Sulfonates and Their Sodium Salts in L1210 Lymphoid Leukemia Cells” (Metal-Based Drugs, 1998)

Key:
L1210 RNA synthesis = assay: Incorporation of labeled precursor into RNA; type: cell-based, mouse; details: 60 min, N=6
From the text: CYTOTOXlCITY OF POLY(PHENOLIC)SULFONATES AND THEIR SODIUM SALTS IN L1210 LYMPHOID LEUKEMIA CELLS Fei Wang, Amy E. Warren, Cheryl R. Barnes and Iris H. Hall* Division of Medicinal Chemistry and Natural Products University of North Carolina Chapel Hill, N.C. […] Because ofthese properties it was surmised that these poly(phenolic)sulfonated compounds may have antineoplastic activity. METHODS Source of Compounds Test compounds were supplied by GeneLabs, Inc. [Redwood City, CA [Table 1]. Radioisotopes were obtained from New England Nuclear [Dupont, Boston, MA]. Substrates and co-factors were purchased om Sigma Chemical Co., [St Louis, MO]. Pentosan sulfate and other antineoplastic standards were obtained from Sigma Chemical Co. Tumor lines were obtained from American Type Culture Collection [Rockville, MD]. 147 Vol. 5, No. 3, 1998 Cytotoxicity ofSodium Poly(Phenolic)Sulfonates in L1210 Lymphoid Leukemia Cells Table 1 Structures of Poly(phenolic)sulfonate Compounds O2R" n Compound R' R" n MW # G1-2041 H OH 8 1489.46 G1-2029 H OH 6 1117.09 G1-2030 H OH 4 744.73 GI-2021 CH3 ONa 8 1777.5 G1-2057 CH3 ONa 4 888.75 GI-2158 CH3 ONa 6 1333.13 GI-2063 OCH3 ONa 8 2001.65 G1-2042 OAc ONa 8 2017.73 Cytotoxicity Poly(phenolic)sulfonates were tested for cytotoxic activity by homogenizing drug in 0.05% Tween 80/H20 to give a mg/ml stock concentration. These solutions were sterilized by passing them through an acrodisc ([…]). The following cell lines were maintained by literature techniques: murine L1210 lymphoid leukemia, P-388 lymphocytic leukemia, rat UMR 106 osteosarcoma, human Tmolt3 acute lymphoblastic T cell leukemia, HUT-8 lymphoma, HeLa-S suspended cervical carcinoma, HeLa solid cervical carcinoma, KB epidermoid nasopharynx, A431 epidermoid carcinoma, colorectal adenocarcinoma SW480, HCT-8 ileocecal adenocarcinoma, lung bronchogenic MB-9812, A549 lung carcinoma, and glioma HS683. Geran et al.'s protocol was used to assess the cytotoxicity of the compounds and standards in each cell line. Cell numbers were determined by the trypan blue exclusion technique. Solid tumor cytotoxicity was determined by Leibovitz et al. 's method utilizing crystal violeeOH and read at 562 nm (Molecular Devices). Values for cytotoxicity were expressed as EDs0 g/ml, i.e. the concentration ofthe compound inhibiting 50% ofcell growth. A value of less than 4 µg/ml was required for significant activity ofgrowth inhibition. Incorporation Studies Incorporation of labeled precursors into 3H-DNA, 3H -RNA and 3H -protein for 10 L1210 cells was obtained. The concentration response for inhibition of DNA, RNA and protein synthesis of the compounds at 25, 50 and 100 l.tM was determined for 60 min incubations. Incorporation of 14C -glycine (53.0 mCi/mmol) into purines was obtained by the method of Cadman et al.[12]. Incorporation of 4C- formate (53.0 mCi/mmol) into pyrimidines was determined by the method of Christopherson et al.[13]. […] DNA polymerase Ot activity was determined in cytoplasmic extracts isolated by Eichler et aL's method. […] Messenger-, ribosomal- and transfer-RNA polymerase enzymes were isolated with different concentrations of ammonium sulfate; individual RNA polymerase activities were determined using 3H -UTP 16,17]. Ribonucleoside reductase activity was measured using 4C -CDP with dithioerythritol. […]

Ribonucleoside reductase = biological target: T1, Ribonucleoside reductase (Mus musculus, UniProt P07742); assay: Ribonucleoside reductase activity, L1210; type: biochemical; details: 60 min, N=6
T1 construct: preparing the appropriate L1210 cell homogenates or subcellular fractions; endogenous in cells; host or cells: L1210 murine lymphoid leukemia cells, homogenate or subcellular fraction
T1 sequence (P07742 1-792): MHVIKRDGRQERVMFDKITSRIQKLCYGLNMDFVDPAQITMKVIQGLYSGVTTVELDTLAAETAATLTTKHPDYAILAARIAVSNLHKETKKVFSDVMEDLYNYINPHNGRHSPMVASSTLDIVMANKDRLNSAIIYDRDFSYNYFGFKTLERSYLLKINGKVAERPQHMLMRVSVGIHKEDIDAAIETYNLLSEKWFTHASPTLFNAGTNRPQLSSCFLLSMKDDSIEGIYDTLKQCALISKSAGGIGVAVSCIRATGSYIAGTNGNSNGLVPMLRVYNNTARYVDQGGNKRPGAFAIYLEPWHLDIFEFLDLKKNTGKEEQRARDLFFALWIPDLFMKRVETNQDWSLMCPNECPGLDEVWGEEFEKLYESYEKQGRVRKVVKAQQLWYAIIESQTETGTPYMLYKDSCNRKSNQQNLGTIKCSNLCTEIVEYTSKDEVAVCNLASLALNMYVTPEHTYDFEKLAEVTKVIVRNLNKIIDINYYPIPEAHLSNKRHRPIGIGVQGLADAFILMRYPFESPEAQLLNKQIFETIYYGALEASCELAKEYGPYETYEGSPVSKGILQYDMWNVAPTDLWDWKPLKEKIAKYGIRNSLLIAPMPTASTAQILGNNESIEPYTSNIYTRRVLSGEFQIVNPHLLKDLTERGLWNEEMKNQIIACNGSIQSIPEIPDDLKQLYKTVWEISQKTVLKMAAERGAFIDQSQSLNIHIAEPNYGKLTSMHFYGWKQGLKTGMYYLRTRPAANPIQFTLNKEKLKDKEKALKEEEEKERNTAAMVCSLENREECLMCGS
T1 sequence (P11157 1-390 partner): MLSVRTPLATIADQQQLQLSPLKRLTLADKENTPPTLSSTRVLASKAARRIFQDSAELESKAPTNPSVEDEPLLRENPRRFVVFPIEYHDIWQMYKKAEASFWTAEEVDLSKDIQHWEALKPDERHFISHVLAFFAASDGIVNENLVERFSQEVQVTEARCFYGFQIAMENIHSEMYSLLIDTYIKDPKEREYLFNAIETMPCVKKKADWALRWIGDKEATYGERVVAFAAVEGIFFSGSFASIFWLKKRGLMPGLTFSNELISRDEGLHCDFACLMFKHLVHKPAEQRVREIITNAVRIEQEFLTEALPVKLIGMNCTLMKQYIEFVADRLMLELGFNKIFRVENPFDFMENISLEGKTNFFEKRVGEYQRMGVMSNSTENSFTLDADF
From the text: CYTOTOXlCITY OF POLY(PHENOLIC)SULFONATES AND THEIR SODIUM SALTS IN L1210 LYMPHOID LEUKEMIA CELLS Fei Wang, Amy E. Warren, Cheryl R. Barnes and Iris H. Hall* Division of Medicinal Chemistry and Natural Products University of North Carolina Chapel Hill, N.C. […] Because ofthese properties it was surmised that these poly(phenolic)sulfonated compounds may have antineoplastic activity. METHODS Source of Compounds Test compounds were supplied by GeneLabs, Inc. [Redwood City, CA [Table 1]. Radioisotopes were obtained from New England Nuclear [Dupont, Boston, MA]. Substrates and co-factors were purchased om Sigma Chemical Co., [St Louis, MO]. Pentosan sulfate and other antineoplastic standards were obtained from Sigma Chemical Co. Tumor lines were obtained from American Type Culture Collection [Rockville, MD]. 147 Vol. 5, No. 3, 1998 Cytotoxicity ofSodium Poly(Phenolic)Sulfonates in L1210 Lymphoid Leukemia Cells Table 1 Structures of Poly(phenolic)sulfonate Compounds O2R" n Compound R' R" n MW # G1-2041 H OH 8 1489.46 G1-2029 H OH 6 1117.09 G1-2030 H OH 4 744.73 GI-2021 CH3 ONa 8 1777.5 G1-2057 CH3 ONa 4 888.75 GI-2158 CH3 ONa 6 1333.13 GI-2063 OCH3 ONa 8 2001.65 G1-2042 OAc ONa 8 2017.73 Cytotoxicity Poly(phenolic)sulfonates were tested for cytotoxic activity by homogenizing drug in 0.05% Tween 80/H20 to give a mg/ml stock concentration. These solutions were sterilized by passing them through an acrodisc ([…]). The following cell lines were maintained by literature techniques: murine L1210 lymphoid leukemia, P-388 lymphocytic leukemia, rat UMR 106 osteosarcoma, human Tmolt3 acute lymphoblastic T cell leukemia, HUT-8 lymphoma, HeLa-S suspended cervical carcinoma, HeLa solid cervical carcinoma, KB epidermoid nasopharynx, A431 epidermoid carcinoma, colorectal adenocarcinoma SW480, HCT-8 ileocecal adenocarcinoma, lung bronchogenic MB-9812, A549 lung carcinoma, and glioma HS683. Geran et al.'s protocol was used to assess the cytotoxicity of the compounds and standards in each cell line. Cell numbers were determined by the trypan blue exclusion technique. Solid tumor cytotoxicity was determined by Leibovitz et al. 's method utilizing crystal violeeOH and read at 562 nm (Molecular Devices). Values for cytotoxicity were expressed as EDs0 g/ml, i.e. the concentration ofthe compound inhibiting 50% ofcell growth. A value of less than 4 µg/ml was required for significant activity ofgrowth inhibition. Incorporation Studies Incorporation of labeled precursors into 3H-DNA, 3H -RNA and 3H -protein for 10 L1210 cells was obtained. The concentration response for inhibition of DNA, RNA and protein synthesis of the compounds at 25, 50 and 100 l.tM was determined for 60 min incubations. Incorporation of 14C -glycine (53.0 mCi/mmol) into purines was obtained by the method of Cadman et al.[12]. Incorporation of 4C- formate (53.0 mCi/mmol) into pyrimidines was determined by the method of Christopherson et al.[13]. Enzyme Assays Inhibition of various enzyme activities was performed by first preparing the appropriate L1210 cell homogenates or subcellular fractions, then adding the drug to be tested during the enzyme assay. For the concentration response studies, inhibition of enzyme activity was determined at 25, 50 and 100 l.tM of compounds G1-2021, G1-2029, GI-2041 and G1-2063 after 60 min incubations. DNA polymerase Ot activity was determined in cytoplasmic extracts isolated by Eichler et aL's method. The DNA polymerase assay was described by Sedwick et al.[15] using 3H-TTP. Messenger-, ribosomal- and transfer-RNA polymerase enzymes were isolated with different concentrations of ammonium sulfate; individual RNA polymerase activities were determined using 3H -UTP 16,17]. Ribonucleoside reductase activity was measured using 4C -CDP with dithioerythritol. The deoxyribonucleotides 4C -dCDP were separated from the ribonucleotides by TLC on PEI plates. […]

COc1c2cc(S(=O)(=O)[O-])cc1Cc1cc(S(=O)(=O)[O-])cc(c1OC)Cc1cc(S(=O)(=O)[O-])cc(c1OC)Cc1cc(S(=O)(=O)[O-])cc(c1OC)Cc1cc(S(=O)(=O)[O-])cc(c1OC)Cc1cc(S(=O)(=O)[O-])cc(c1OC)Cc1cc(S(=O)(=O)[O-])cc(c1OC)Cc1cc(S(=O)(=O)[O-])cc(c1OC)C2.[Na+].[Na+].[Na+].[Na+].[Na+].[Na+].[Na+].[Na+] [GI-2021]
RNA synthesis (L1210 RNA synthesis; 25 μM): 109+6% of Control | RNA synthesis (L1210 RNA synthesis; 50 μM): 94+6% of Control | RNA synthesis (L1210 RNA synthesis; 100 μM): 78+4% of Control | Ribonucleoside reductase (Ribonucleoside reductase; 25 μM): 158+6% of Control | Ribonucleoside reductase (Ribonucleoside reductase; 50 μM): 124+5% of Control | Ribonucleoside reductase (Ribonucleoside reductase; 100 μM): 91+5% of Control

O=S(=O)(O)c1cc2c(O)c(c1)Cc1cc(S(=O)(=O)O)cc(c1O)Cc1cc(S(=O)(=O)O)cc(c1O)Cc1cc(S(=O)(=O)O)cc(c1O)Cc1cc(S(=O)(=O)O)cc(c1O)Cc1cc(S(=O)(=O)O)cc(c1O)C2 [GI-2029]
RNA synthesis (L1210 RNA synthesis; 50 μM): 91+5% of Control | Ribonucleoside reductase (Ribonucleoside reductase; 25 μM): 130+5% of Control | Ribonucleoside reductase (Ribonucleoside reductase; 50 μM): 130+6% of Control | Ribonucleoside reductase (Ribonucleoside reductase; 100 μM): 141+5% of Control

O=S(=O)(O)c1cc2c(O)c(c1)Cc1cc(S(=O)(=O)O)cc(c1O)Cc1cc(S(=O)(=O)O)cc(c1O)Cc1cc(S(=O)(=O)O)cc(c1O)Cc1cc(S(=O)(=O)O)cc(c1O)Cc1cc(S(=O)(=O)O)cc(c1O)Cc1cc(S(=O)(=O)O)cc(c1O)Cc1cc(S(=O)(=O)O)cc(c1O)C2 [GI-2041]
RNA synthesis (L1210 RNA synthesis; 25 μM): 130+5% of Control | Ribonucleoside reductase (Ribonucleoside reductase; 25 μM): 127+5% of Control | Ribonucleoside reductase (Ribonucleoside reductase; 50 μM): 127+6% of Control
